Assay results from US20120082677A1, “COMPOSITIONS FOR THE TREATMENT OF HCV AND HBV” (priority 2010, published 2012).

Assays:
[1] = Experiment 7 (second): injection in white mice for about 15 days; format: in vivo; conditions: 5 per group, injected for about 15 days
Description: Experimental animals: We classified 20 white mice in 4 groups every group has 5 mice.

[2] = cited from earlier work

NC[C@H]1CC[C@H](C(=O)O)CC1 [tranexamic acid]
survival of the mice [1]: still alive
time of peak plasma concentration ([2]; absorption via the GIT): 2 h
excretion ([2]; chemical part): excreted in the urine mainly as unchanged drug
protein binding ([2]; in vivo): very low
absorption ([2]; via the GIT): easily absorbed via the GIT
